Laboratory results taken from the NIST ThermoML archive (doi:10.1021/je600557n).

Legend:
[1] = refractive index (Na D-line) (dimensionless); xn = mol fraction of the nth substance listed; details: 101 kPa, Liquid, Standard Abbe refractometry
[2] = xn = mol fraction of the nth substance listed; details: 101 kPa, Liquid
[3] = molar heat capacity at constant pressure; xn = mol fraction of the nth substance listed; details: 101 kPa, Liquid, Small sample (50 mg) DSC

CC1CCCO1 (stereo not drawn) [2-methyltetrahydrofuran] + C[S+](C)[O-]
Details	mass density, [2] [kg/m3]	molar heat capacity at constant pressure, [3] [J/K/mol]	refractive index, [1]	viscosity, [2] [mPa·s]
293.15 K, x2 = 0.0675	865.78	–	1.4121	0.537
293.15 K, x2 = 0.1033	–	155.2	–	–
293.15 K, x2 = 0.1168	875.28	–	1.4152	0.561
293.15 K, x2 = 0.1368	–	155.1	–	–
293.15 K, x2 = 0.2208	896.02	–	1.4215	0.631
293.15 K, x2 = 0.2714	–	155	–	–
293.15 K, x2 = 0.3228	917.54	–	1.4282	0.719
293.15 K, x2 = 0.3775	–	154.6	–	–
293.15 K, x2 = 0.4044	935.66	–	1.4336	0.78
293.15 K, x2 = 0.4694	950.78	–	1.438	0.876
293.15 K, x2 = 0.4881	–	154.2	–	–
293.15 K, x2 = 0.5058	959.5	–	1.4407	0.926
293.15 K, x2 = 0.5877	–	153.8	–	–
293.15 K, x2 = 0.5888	980.16	–	1.4468	1.047
293.15 K, x2 = 0.6274	–	153.6	–	–
293.15 K, x2 = 0.6692	1001.25	–	1.4527	1.194
293.15 K, x2 = 0.6833	–	153.2	–	–
293.15 K, x2 = 0.7448	1022.04	–	1.4589	1.354
293.15 K, x2 = 0.7593	–	152.9	–	–
293.15 K, x2 = 0.8192	1043.57	–	1.4651	1.55
293.15 K, x2 = 0.8559	–	152	–	–
293.15 K, x2 = 0.9343	–	151.2	–	–
293.15 K, x2 = 0.9523	1084.75	–	1.477	2.004
293.15 K, x2 = 0.9687	–	150.8	–	–
303.15 K, x2 = 0.0609	854.29	–	1.4055	0.468
303.15 K, x2 = 0.1033	–	158.4	–	–
303.15 K, x2 = 0.1281	867.26	–	1.4096	0.501
303.15 K, x2 = 0.1368	–	158.3	–	–
303.15 K, x2 = 0.2161	884.84	–	1.4152	0.554
303.15 K, x2 = 0.2714	–	157.7	–	–
303.15 K, x2 = 0.3184	906.38	–	1.4216	0.628
303.15 K, x2 = 0.3775	–	157.3	–	–
303.15 K, x2 = 0.4156	928.04	–	1.4281	0.71
303.15 K, x2 = 0.4881	–	156.7	–	–
303.15 K, x2 = 0.5105	950.44	–	1.4349	0.807
303.15 K, x2 = 0.5491	959.9	–	1.4378	0.852
303.15 K, x2 = 0.584	968.73	–	1.4405	0.896
303.15 K, x2 = 0.5877	–	156.1	–	–
303.15 K, x2 = 0.6274	–	155.8	–	–
303.15 K, x2 = 0.6652	989.97	–	1.4469	1.013
303.15 K, x2 = 0.6833	–	155.4	–	–
303.15 K, x2 = 0.7439	1011.62	–	1.4535	1.149
303.15 K, x2 = 0.7593	–	154.7	–	–
303.15 K, x2 = 0.8161	1032.51	–	1.4595	1.286
303.15 K, x2 = 0.8558	–	153.8	–	–
303.15 K, x2 = 0.9343	–	152.9	–	–
303.15 K, x2 = 0.9427	1071.55	–	1.4703	1.623
303.15 K, x2 = 0.9687	–	152.7	–	–
313.15 K, x2 = 0.0723	846.13	–	1.4004	0.428
313.15 K, x2 = 0.1033	–	161.5	–	–
313.15 K, x2 = 0.1209	855.52	–	1.4034	0.452
313.15 K, x2 = 0.1368	–	161.3	–	–
313.15 K, x2 = 0.2135	874.07	–	1.4093	0.497
313.15 K, x2 = 0.2714	–	160.6	–	–
313.15 K, x2 = 0.3285	898.41	–	1.4171	0.566
313.15 K, x2 = 0.3775	–	159.9	–	–
313.15 K, x2 = 0.4268	920.49	–	1.4237	0.64
313.15 K, x2 = 0.4881	–	158.9	–	–
313.15 K, x2 = 0.502	938.3	–	1.4291	0.706
313.15 K, x2 = 0.5525	950.72	–	1.433	0.751
313.15 K, x2 = 0.5877	–	158.2	–	–
313.15 K, x2 = 0.5881	959.69	–	1.4357	0.786
313.15 K, x2 = 0.6274	–	158	–	–
313.15 K, x2 = 0.6613	978.86	–	1.4415	0.872
313.15 K, x2 = 0.6833	–	157.4	–	–
313.15 K, x2 = 0.7441	1001.63	–	1.4484	0.997
313.15 K, x2 = 0.7593	–	156.7	–	–
313.15 K, x2 = 0.8488	1032.24	–	1.4572	1.162
313.15 K, x2 = 0.8558	–	155.7	–	–
313.15 K, x2 = 0.9343	–	154.5	–	–
313.15 K, x2 = 0.9474	1063.08	–	1.4666	1.374
313.15 K, x2 = 0.9687	–	154.1	–	–

C1CCOCC1 [tetrahydropyran] + C[S+](C)[O-]
Details	mass density, [2] [kg/m3]	molar heat capacity at constant pressure, [3] [J/K/mol]	refractive index, [1]	viscosity, [2] [mPa·s]
293.15 K, x2 = 0.073	895.7	–	1.4268	0.906
293.15 K, x2 = 0.0996	–	148.8	–	–
293.15 K, x2 = 0.1171	903.11	–	1.4288	0.931
293.15 K, x2 = 0.1317	–	149.7	–	–
293.15 K, x2 = 0.2176	920.63	–	1.4336	1.005
293.15 K, x2 = 0.2636	–	153	–	–
293.15 K, x2 = 0.3108	937.76	–	1.4383	1.082
293.15 K, x2 = 0.3636	–	154.6	–	–
293.15 K, x2 = 0.4069	956.42	–	1.4433	1.173
293.15 K, x2 = 0.4832	–	155.9	–	–
293.15 K, x2 = 0.4982	975.18	–	1.4483	1.274
293.15 K, x2 = 0.5309	–	156	–	–
293.15 K, x2 = 0.5763	–	155.8	–	–
293.15 K, x2 = 0.5786	992.6	–	1.4528	1.377
293.15 K, x2 = 0.6227	1002.56	–	1.4554	1.433
293.15 K, x2 = 0.6527	1009.49	–	1.4573	1.476
293.15 K, x2 = 0.6773	–	155.5	–	–
293.15 K, x2 = 0.7338	1028.89	–	1.4624	1.605
293.15 K, x2 = 0.7586	–	154.7	–	–
293.15 K, x2 = 0.8085	1047.69	–	1.4673	1.75
293.15 K, x2 = 0.8412	–	153.7	–	–
293.15 K, x2 = 0.9237	–	152	–	–
293.15 K, x2 = 0.9321	1080.93	–	1.4761	2.022
293.15 K, x2 = 0.9579	–	151.4	–	–
303.15 K, x2 = 0.0996	–	152.5	–	–
303.15 K, x2 = 0.1175	893.4	–	1.4226	0.804
303.15 K, x2 = 0.1317	–	153.1	–	–
303.15 K, x2 = 0.2209	911.49	–	1.4275	0.865
303.15 K, x2 = 0.2636	–	155	–	–
303.15 K, x2 = 0.3113	928.13	–	1.4322	0.925
303.15 K, x2 = 0.3636	–	156.1	–	–
303.15 K, x2 = 0.411	947.52	–	1.4375	1.001
303.15 K, x2 = 0.4832	–	156.6	–	–
303.15 K, x2 = 0.4945	964.64	–	1.4422	1.078
303.15 K, x2 = 0.5309	–	156.8	–	–
303.15 K, x2 = 0.5341	973.08	–	1.4444	1.112
303.15 K, x2 = 0.5763	–	156.5	–	–
303.15 K, x2 = 0.5869	984.64	–	1.4477	1.168
303.15 K, x2 = 0.6597	1001.27	–	1.4522	1.25
303.15 K, x2 = 0.6773	–	156	–	–
303.15 K, x2 = 0.7348	1019.24	–	1.4571	1.345
303.15 K, x2 = 0.7586	–	155.5	–	–
303.15 K, x2 = 0.8105	1038.27	–	1.4621	1.453
303.15 K, x2 = 0.8412	–	154.6	–	–
303.15 K, x2 = 0.876	1055.53	–	1.4666	1.563
303.15 K, x2 = 0.9237	–	153.2	–	–
303.15 K, x2 = 0.9393	1072.96	–	1.471	1.679
303.15 K, x2 = 0.9579	–	152.9	–	–
313.15 K, x2 = 0.07165	875.38	–	1.4152	0.681
313.15 K, x2 = 0.0996	–	157.1	–	–
313.15 K, x2 = 0.1195	883.44	–	1.4173	0.701
313.15 K, x2 = 0.1317	–	157.7	–	–
313.15 K, x2 = 0.2128	899.76	–	1.422	0.745
313.15 K, x2 = 0.2636	–	159.3	–	–
313.15 K, x2 = 0.3143	918.44	–	1.4272	0.803
313.15 K, x2 = 0.3636	–	160	–	–
313.15 K, x2 = 0.4102	937.09	–	1.4323	0.863
313.15 K, x2 = 0.4832	–	160.5	–	–
313.15 K, x2 = 0.4969	954.93	–	1.4375	0.927
313.15 K, x2 = 0.5309	–	160.3	–	–
313.15 K, x2 = 0.5311	962.23	–	1.4394	0.953
313.15 K, x2 = 0.5763	–	160.1	–	–
313.15 K, x2 = 0.5865	974.36	–	1.4429	0.997
313.15 K, x2 = 0.6595	991.06	–	1.4474	1.063
313.15 K, x2 = 0.6773	–	159.3	–	–
313.15 K, x2 = 0.7295	1007.8	–	1.452	1.136
313.15 K, x2 = 0.7586	–	158.5	–	–
313.15 K, x2 = 0.8349	1034.54	–	1.4592	1.26
313.15 K, x2 = 0.8412	–	157.3	–	–
313.15 K, x2 = 0.9237	–	155.8	–	–
313.15 K, x2 = 0.938	1062.5	–	1.4663	1.405
313.15 K, x2 = 0.9579	–	155.1	–	–
